ChEMBL document CHEMBL4052640 (Eur J Med Chem, 2017)

Assays:
[1] = test system: Yellow fever virus; assay: microbe, parasite or virus in culture; details: Vero
[2] = test system: Coxsackievirus B4; format: functional; details: Enterovirus B, Vero
[3] = test system: Human respirovirus 3; assay: microbe, parasite or virus in culture; details: Human respirovirus 3, Vero
[4] = test system: MDCK; assay: Cytotoxicity against dog MDCK cells assessed as reduction in cell viability measured after 5 to 6 days by MTS assay; format: cell-based, Canis lupus familiaris
[5] = test system: Vesicular stomatitis virus; assay: microbe, parasite or virus in culture; details: HeLa
[6] = test system: Sindbis virus; format: functional; details: Vero
[7] = test system: Mammalian orthoreovirus 1; format: functional; details: Mammalian orthoreovirus 1, Vero
[8] = test system: Punta Toro virus; format: functional; details: Vero
[9] = test system: Coxsackievirus B4; format: functional, cell-based; details: Enterovirus B, HeLa
[10] = test system: Respiratory syncytial virus; format: functional, cell-based; details: human respiratory syncytial virus, HeLa
[11] = test system: Influenza B virus; assay: microbe, parasite or virus in culture; details: B/Ned/537/05, MDCK
[12] = cells; details: Influenza A virus, MDCK
[13] = cells; details: MDCK
[14] = cells; details: Influenza A virus, MDCK; remark: listed apart in the source
[15] = test system: Influenza A virus; format: functional, cell-based; details: A/Ned/378/05(H1N1), MDCK
[16] = test system: Influenza A virus; format: functional, cell-based; details: A/Ned/378/05(H1N1), MDCK; remark: listed apart in the source

COc1ccc(N2C(N)=NC(N)=NC2(C)C)cc1
EC50 [1]: > 100 µM
EC50 [2]: > 100 µM
EC50 [3]: > 100 µM
CC50 [4]: > 100 µM
EC50 [5]: > 100 µM
EC50 [6]: > 100 µM
EC50 [7]: > 100 µM
EC50 [8]: > 100 µM
EC50 [9]: > 100 µM

CC1(C)N=C(N)N=C(N)N1c1cccc(F)c1
EC50 [1]: > 100 µM
EC50 [2]: > 100 µM
EC50 [3]: > 100 µM
CC50 [4]: > 100 µM
EC50 [5]: > 100 µM
EC50 [10]: 0.01 µM
EC50 [6]: > 100 µM
EC50 [7]: 9.5 µM
EC50 [8]: > 100 µM
EC50 [11]: 1.7 µM
EC50 [9]: > 100 µM
EC50 [12]: > 100 µM
EC50 [13]: 0.2 µM
EC50 [14]: 21 µM

CC1(C)N=C(N)N=C(N)N1c1cccc(Br)c1
EC50 [1]: > 100 µM
EC50 [2]: > 100 µM
EC50 [3]: > 100 µM
CC50 [4]: 29 µM
EC50 [5]: > 100 µM
EC50 [6]: > 100 µM
EC50 [8]: > 100 µM
EC50 [9]: > 100 µM
EC50 [12]: > 100 µM
EC50 [14]: > 100 µM

CC1(C)N=C(N)N=C(N)N1c1cc(C(F)(F)F)cc(C(F)(F)F)c1
EC50 [1]: > 100 µM
EC50 [2]: > 100 µM
EC50 [3]: > 100 µM
CC50 [4]: > 100 µM
EC50 [5]: > 100 µM
EC50 [10]: 0.27 µM
EC50 [6]: > 100 µM
EC50 [7]: > 100 µM
EC50 [8]: > 100 µM
EC50 [11]: 1.8 µM
EC50 [9]: > 100 µM
EC50 [12]: > 100 µM
EC50 [13]: 0.8 µM
EC50 [14]: 36 µM

CC1(C)N=C(N)N=C(N)N1c1ccc(C(=O)O)cc1
EC50 [15]: > 100 µM
EC50 [1]: > 100 µM
EC50 [2]: > 100 µM
EC50 [3]: > 100 µM
CC50 [4]: > 100 µM
EC50 [5]: > 100 µM
EC50 [10]: > 100 µM
EC50 [6]: > 100 µM
EC50 [7]: > 100 µM
EC50 [8]: > 100 µM
EC50 [16]: > 100 µM
EC50 [11]: > 100 µM
EC50 [9]: > 100 µM
EC50 [12]: > 83 µM
EC50 [13]: > 100 µM
EC50 [14]: > 83 µM

NC1=NC2(CCCC2)N(c2cccc(C(F)(F)F)c2)C(N)=N1
EC50 [1]: > 100 µM
EC50 [2]: > 100 µM
EC50 [3]: > 100 µM
CC50 [4]: > 100 µM
EC50 [5]: > 100 µM
EC50 [10]: 0.2 µM
EC50 [6]: > 100 µM
EC50 [7]: > 100 µM
EC50 [8]: > 100 µM
EC50 [11]: 1.6 µM
EC50 [9]: > 100 µM
EC50 [12]: > 100 µM
EC50 [13]: 0.33 µM
EC50 [14]: > 100 µM

NC1=NC2(CCCC2)N(c2cccc(Cl)c2)C(N)=N1
EC50 [1]: > 100 µM
EC50 [2]: > 100 µM
EC50 [3]: > 100 µM
CC50 [4]: > 100 µM
EC50 [5]: > 100 µM
EC50 [10]: 0.22 µM
EC50 [6]: > 100 µM
EC50 [7]: > 100 µM
EC50 [8]: > 100 µM
EC50 [11]: 4.5 µM
EC50 [9]: > 100 µM
EC50 [12]: > 100 µM
EC50 [13]: 0.4 µM
EC50 [14]: 49 µM

NC1=NC2(CCCCC2)N(c2cccc(C(F)(F)F)c2)C(N)=N1
EC50 [1]: > 100 µM
EC50 [2]: > 100 µM
EC50 [3]: > 100 µM
CC50 [4]: > 100 µM
EC50 [5]: > 100 µM
EC50 [6]: > 100 µM
EC50 [7]: > 100 µM
EC50 [8]: > 100 µM
EC50 [9]: > 100 µM
EC50 [12]: > 100 µM
EC50 [14]: > 100 µM

CC1(C)N=C(N)N=C(N)N1c1ccc([N+](=O)[O-])cc1
EC50 [15]: > 100 µM
EC50 [1]: > 100 µM
EC50 [2]: > 100 µM
EC50 [3]: > 100 µM
CC50 [4]: > 100 µM
EC50 [5]: > 100 µM
EC50 [10]: 27 µM
EC50 [6]: > 100 µM
EC50 [7]: > 100 µM
EC50 [8]: > 100 µM
EC50 [16]: > 100 µM
EC50 [11]: 35 µM
EC50 [9]: > 100 µM
EC50 [12]: > 83 µM
EC50 [13]: 7.8 µM
EC50 [14]: > 83 µM

NC1=NC2(CCCCC2)N(c2cccc(Cl)c2)C(N)=N1
EC50 [1]: > 100 µM
EC50 [2]: > 100 µM
EC50 [3]: > 100 µM
CC50 [4]: > 100 µM
EC50 [5]: > 100 µM
EC50 [6]: > 100 µM
EC50 [7]: > 100 µM
EC50 [8]: > 100 µM
EC50 [11]: 10 µM
EC50 [9]: > 100 µM
EC50 [12]: > 100 µM
EC50 [13]: 3 µM
EC50 [14]: > 100 µM

CC1(C)N=C(N)N=C(N)N1c1ccc(Br)cc1
EC50 [15]: 7.3 µM
EC50 [1]: > 100 µM
EC50 [2]: > 100 µM
EC50 [3]: > 100 µM
CC50 [4]: 53 µM
EC50 [5]: > 100 µM
EC50 [10]: 0.16 µM
EC50 [6]: > 100 µM
EC50 [7]: > 100 µM
EC50 [8]: > 100 µM
EC50 [16]: 21 µM
EC50 [11]: 2.9 µM
EC50 [9]: > 100 µM
EC50 [12]: 39 µM
EC50 [13]: 1 µM
EC50 [14]: 19 µM

CC1(C)N=C(N)N=C(N)N1c1ccccc1
EC50 [1]: > 100 µM
EC50 [2]: > 100 µM
EC50 [3]: > 100 µM
CC50 [4]: > 100 µM
EC50 [5]: > 100 µM
EC50 [6]: > 100 µM
EC50 [7]: > 100 µM
EC50 [8]: > 100 µM
EC50 [9]: > 100 µM

Cc1ccc(N2C(N)=NC(N)=NC2(C)C)cc1
EC50 [15]: 34 µM
EC50 [1]: > 100 µM
EC50 [2]: > 100 µM
EC50 [3]: > 100 µM
CC50 [4]: > 100 µM
EC50 [5]: > 100 µM
EC50 [6]: > 100 µM
EC50 [7]: > 100 µM
EC50 [8]: > 100 µM
EC50 [16]: 48 µM
EC50 [11]: 11 µM
EC50 [9]: > 100 µM
EC50 [12]: 53 µM
EC50 [13]: 1.2 µM
EC50 [14]: 34 µM

CC1(C)N=C(N)N=C(N)N1c1ccc(F)cc1
EC50 [1]: > 100 µM
EC50 [2]: > 100 µM
EC50 [3]: > 100 µM
CC50 [4]: > 100 µM
EC50 [5]: > 100 µM
EC50 [6]: > 100 µM
EC50 [7]: > 100 µM
EC50 [8]: > 100 µM
EC50 [9]: > 100 µM

CC1(C)N=C(N)N=C(N)N1c1cccc(Cl)c1
EC50 [1]: > 100 µM
EC50 [2]: > 100 µM
EC50 [3]: > 100 µM
CC50 [4]: 1.4 µM
EC50 [5]: > 100 µM
EC50 [6]: > 100 µM
EC50 [8]: > 100 µM
EC50 [9]: > 100 µM

NC12CC3CC(CC(C3)C1)C2 [AMANTADINE]
EC50 [15]: 2.2 µM
CC50 [4]: > 400 µM
EC50 [16]: 2.3 µM
EC50 [11]: > 400 µM
EC50 [12]: 124 µM
EC50 [13]: > 400 µM
EC50 [14]: 211 µM

CC1(C)N=C(N)N=C(N)N1c1ccc(Cl)cc1 [CYCLOGUANIL]
EC50 [1]: > 100 µM
EC50 [2]: > 100 µM
EC50 [3]: > 100 µM
CC50 [4]: 52 µM
EC50 [5]: > 100 µM
EC50 [6]: > 100 µM
EC50 [7]: > 100 µM
EC50 [8]: > 100 µM
EC50 [9]: > 100 µM

COc1c(C)c2c(c(O)c1C/C=C(\C)CCC(=O)O)C(=O)OC2 [MYCOPHENOLIC ACID]
EC50 [1]: 2.3 µM
EC50 [2]: > 100 µM
EC50 [3]: 0.4 µM
EC50 [6]: 1.4 µM

CCc1nc(N)nc(N)c1-c1ccc(Cl)cc1 [PYRIMETHAMINE]
EC50 [1]: > 100 µM
CC50 [4]: 41 µM
EC50 [5]: > 100 µM
EC50 [8]: > 100 µM
EC50 [9]: > 100 µM
EC50 [12]: > 83 µM
EC50 [14]: > 83 µM

NC(=O)c1ncn([C@@H]2O[C@H](CO)[C@@H](O)[C@H]2O)n1 [RIBAVIRIN]
EC50 [15]: 7.6 µM
EC50 [1]: > 250 µM
EC50 [2]: > 250 µM
EC50 [10]: 5.8 µM
EC50 [6]: > 250 µM
EC50 [7]: > 250 µM
EC50 [8]: 29 µM
EC50 [16]: 10 µM

CC(N)C12CC3CC(CC(C3)C1)C2 (stereo unspecified) [RIMANTADINE]
CC50 [4]: > 400 µM
EC50 [11]: > 400 µM
EC50 [13]: > 400 µM

CC(=O)N[C@H]1[C@H]([C@H](O)[C@H](O)CO)OC(C(=O)O)=C[C@@H]1N=C(N)N [ZANAMIVIR]
CC50 [4]: > 100 µM
EC50 [11]: 0.06 µM
EC50 [12]: 2.3 µM
EC50 [13]: 0.055 µM
EC50 [14]: 6.8 µM
